Measurements taken from ChEMBL document CHEMBL5126584, “Synthesis of AC1903 analogs as potent transient receptor potential canonical channel 4/5 inhibitors and biological evaluation” (Bioorg Med Chem, 2022).
Active and inactive are the calls of the source. The calls are words filed in the database; no cut-off is given here.

Experiments:
[1] = biological target: T1, Short transient receptor potential channel 5 (Homo sapiens, UniProt Q9UL62); assay: Inhibition of human TRPC5 channel expressed in HEK293 cells assessed as inhibition of EA-evoked Calcium influx by measuring reduction in intracellular Ca2+ level and measured upto 360 sec by Fluo-4/AM dye based FLIPR assay; type: cell-based
T1 sequence (Q9UL62 whole entry): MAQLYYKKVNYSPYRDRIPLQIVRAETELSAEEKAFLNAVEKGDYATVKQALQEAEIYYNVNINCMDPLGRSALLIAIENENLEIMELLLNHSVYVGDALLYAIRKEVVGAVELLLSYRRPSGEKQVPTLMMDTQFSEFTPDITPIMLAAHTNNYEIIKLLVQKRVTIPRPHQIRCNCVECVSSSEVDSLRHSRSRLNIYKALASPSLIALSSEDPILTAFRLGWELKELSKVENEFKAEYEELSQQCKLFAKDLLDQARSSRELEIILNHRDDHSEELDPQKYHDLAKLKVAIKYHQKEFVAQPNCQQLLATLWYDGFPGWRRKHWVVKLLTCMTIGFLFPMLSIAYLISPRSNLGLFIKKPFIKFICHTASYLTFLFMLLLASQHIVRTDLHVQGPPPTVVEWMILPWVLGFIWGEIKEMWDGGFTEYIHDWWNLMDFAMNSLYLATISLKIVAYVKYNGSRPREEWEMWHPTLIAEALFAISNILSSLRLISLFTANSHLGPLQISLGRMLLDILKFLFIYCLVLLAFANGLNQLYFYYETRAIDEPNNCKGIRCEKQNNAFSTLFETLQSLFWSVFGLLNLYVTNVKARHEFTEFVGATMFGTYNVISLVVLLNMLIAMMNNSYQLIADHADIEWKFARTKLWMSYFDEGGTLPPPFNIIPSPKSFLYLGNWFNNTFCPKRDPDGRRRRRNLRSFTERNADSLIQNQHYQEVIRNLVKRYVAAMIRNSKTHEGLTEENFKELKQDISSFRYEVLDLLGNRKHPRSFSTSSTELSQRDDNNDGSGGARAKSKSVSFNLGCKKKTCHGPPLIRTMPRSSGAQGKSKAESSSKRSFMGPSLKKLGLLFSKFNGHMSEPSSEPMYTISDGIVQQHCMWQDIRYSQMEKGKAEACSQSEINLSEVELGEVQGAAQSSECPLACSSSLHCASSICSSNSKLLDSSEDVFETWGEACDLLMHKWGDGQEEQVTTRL

[2] = biological target: T2, Short transient receptor potential channel 4 (Homo sapiens, UniProt Q9UBN4); assay: Inhibition of human TRPC4 channel expressed in HEK293 cells assessed as inhibition of EA-evoked Calcium influx by measuring reduction in intracellular Ca2+ level and measured upto 360 sec by Fluo-4/AM dye based FLIPR assay; type: cell-based
T2 sequence (Q9UBN4 whole entry): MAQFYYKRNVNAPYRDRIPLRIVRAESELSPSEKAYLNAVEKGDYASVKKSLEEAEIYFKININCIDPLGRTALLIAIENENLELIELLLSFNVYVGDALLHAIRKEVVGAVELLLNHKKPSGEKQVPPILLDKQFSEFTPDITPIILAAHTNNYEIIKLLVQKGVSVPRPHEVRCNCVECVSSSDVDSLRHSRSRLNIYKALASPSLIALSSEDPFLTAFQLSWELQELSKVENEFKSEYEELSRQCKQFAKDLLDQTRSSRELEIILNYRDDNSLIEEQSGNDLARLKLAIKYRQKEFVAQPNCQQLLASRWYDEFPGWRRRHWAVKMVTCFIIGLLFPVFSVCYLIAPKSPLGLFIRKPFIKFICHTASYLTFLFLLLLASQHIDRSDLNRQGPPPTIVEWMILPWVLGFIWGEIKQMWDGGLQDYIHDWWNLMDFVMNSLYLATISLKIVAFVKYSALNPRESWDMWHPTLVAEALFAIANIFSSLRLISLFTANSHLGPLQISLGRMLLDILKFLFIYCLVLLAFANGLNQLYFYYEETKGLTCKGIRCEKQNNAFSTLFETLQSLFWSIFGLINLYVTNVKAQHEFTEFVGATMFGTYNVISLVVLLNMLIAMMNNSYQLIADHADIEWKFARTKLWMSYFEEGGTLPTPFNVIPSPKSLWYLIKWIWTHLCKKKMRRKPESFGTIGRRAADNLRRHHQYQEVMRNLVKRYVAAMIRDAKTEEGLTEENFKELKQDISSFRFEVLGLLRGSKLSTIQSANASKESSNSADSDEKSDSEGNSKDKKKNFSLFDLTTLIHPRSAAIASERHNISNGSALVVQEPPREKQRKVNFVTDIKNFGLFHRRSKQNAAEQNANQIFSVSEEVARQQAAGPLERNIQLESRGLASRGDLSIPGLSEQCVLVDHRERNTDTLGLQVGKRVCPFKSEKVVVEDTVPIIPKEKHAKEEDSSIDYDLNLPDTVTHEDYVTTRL

[3] = system: MPC-5; assay: Protective effect against protamine sulfate induced cytoskeleton rearrangement in mouse MPC-5 cell assessed as reduction in aggregated stress fibers at 1 to 3 uM pretreatment followed by PS stimulation and measured after 2 hrs by phalloidin and Hoechst 33342 staining based fluorescence analysis; type: functional; settings: dose 1-3 µM
[4] = system: HaCaT; assay: Inhibition of IL-17 induced cell proliferation in human HaCaT cells assessed as decrease in BrdU positive (BrdU+) cells at 0.3 to 3 uM and measured after 24 hrs by BrdU incorporation assay; type: functional, cell-based; settings: dose 0.3-3 µM
[5] = system: HaCaT; assay: Inhibition of IL-17 induced inflammation in human HaCaT cells assessed as reduction in IL-6 mRNA level at 0.3 to 3 uM by qRT-PCR analysis; type: functional, cell-based; settings: dose 0.3-3 µM
[6] = system: HaCaT; assay: Inhibition of IL-17 induced inflammation in human HaCaT cells assessed as reduction in IL-8 mRNA level at 0.3 to 3 uM by qRT-PCR analysis; type: functional, cell-based; settings: dose 0.3-3 µM
[7] = system: HaCaT; assay: Inhibition of IL-17 induced inflammation in human HaCaT cells assessed as reduction in CCL-20 mRNA level at 0.3 to 3 uM by qRT-PCR analysis; type: functional, cell-based; settings: dose 0.3-3 µM
[8] = system: MPC-5; assay: Protective effect against protamine sulfate induced cytoskeleton rearrangement in mouse MPC-5 cell assessed as reduction in aggregated stress fibers at 10 uM pretreatment followed by PS stimulation and measured after 2 hrs by phalloidin and Hoechst 33342 staining based fluorescence analysis; type: functional
[9] = system: HaCaT; assay: Inhibition of IL-17 induced cell proliferation in human HaCaT cells assessed as decrease in BrdU positive (BrdU+) cells at 10 uM and measured after 24 hrs by BrdU incorporation assay; type: functional, cell-based

Compound	IC50 [1]	other results
CCc1ccc2c(c1)nc(NCc1cccs1)n2Cc1ccccc1	2410 nM	
CCc1ccc2c(c1)nc(NCc1ccco1)n2Cc1ccc(OC(F)(F)F)cc1	920 nM	
CCc1ccc2c(c1)nc(NCC1CCCO1)n2Cc1ccccc1 (stereo not given)	1820 nM	
CCc1ccc2c(c1)nc(NCCc1ccco1)n2Cc1ccccc1	1020 nM	
CCc1ccc2c(c1)nc(N1CC3(COC3)C1)n2Cc1ccccc1	> 10000 nM	
Cc1ccc2nc(NCc3ccco3)n(Cc3ccccc3)c2c1	> 10000 nM	
CCc1ccc2c(c1)nc(N1CC3CCC(C1)O3)n2Cc1ccccc1	> 10000 nM	
CCc1ccc2c(c1)nc(NCc1ccc(Cl)o1)n2Cc1ccccc1	2210 nM	
CCc1ccc2c(c1)nc(N1CCOCC1)n2Cc1ccccc1	> 10000 nM	
c1ccc(Cn2c(NCc3ccco3)nc3cc(C4CC4)ccc32)cc1	820 nM	
Cc1ccc2c(c1)nc(NCc1ccco1)n2Cc1ccccc1	670 nM	
CCc1ccc2c(c1)nc(NCc1ccco1)n2Cc1ccccc1	540 nM	IC50 [2]: 2060 nM; Activity [3]: Active; inhibition [4]: Active; inhibition [5]: Active; inhibition [6]: Active; inhibition [7]: Active
CCc1ccc2c(c1)nc(N1CCN(C)CC1)n2Cc1ccccc1	> 10000 nM	
c1ccc(Cn2c(NCc3ccco3)nc3ccccc32)cc1	65000 nM	IC50 [2]: 77200 nM; Activity [8]: Active; inhibition [9]: Active
CCc1ccc2c(c1)nc(N1CCC3(CCCO3)CC1)n2Cc1ccccc1	> 10000 nM	
CCc1ccc2c(c1)nc(NCc1ccccn1)n2Cc1ccccc1	3130 nM	
CCc1ccc2c(c1)nc(NCc1ccco1)n2Cc1ccc(OC)cc1	2210 nM	
CCc1ccc2c(c1)nc(NCCN1CCCCC1)n2Cc1ccccc1	3350 nM	
CCc1ccc2nc(NCc3ccco3)n(Cc3ccccc3)c2c1	> 10000 nM	
CCc1ccc(Cn2c(NCc3ccco3)nc3cc(CC)ccc32)cc1	2300 nM	
CCc1ccc2c(c1)nc(NCc1ccc(C#N)o1)n2Cc1ccccc1	> 10000 nM	
CCc1ccc2c(c1)nc(NCc1ccco1)n2Cc1ccc(C(F)(F)F)cc1	1350 nM	
CC(C)c1ccc2c(c1)nc(NCc1ccco1)n2Cc1ccccc1	570 nM	
CCc1ccc2c(c1)nc(NCc1ccco1)n2Cc1ccc(F)cc1	960 nM	
C=Cc1ccc2c(c1)nc(NCc1ccco1)n2Cc1ccccc1	> 10000 nM	

Now from value to compound, other results behind:

IC50 [1]	Compound	other results
4630 nM	CCc1ccc2c(c1)nc(NCc1ccco1)n2Cc1ccc(C)cc1	
2270 nM	CCc1ccc2c(c1)nc(NCC1CCOC1)n2Cc1ccccc1 (stereo not given)	
2640 nM	CCc1ccc2c(c1)nc(NCCN1CCOCC1)n2Cc1ccccc1	
> 10000 nM	CCc1ccc2c(c1)nc(N1CCC(C)CC1)n2Cc1ccccc1	
2930 nM	CCc1ccc2c(c1)nc(NCc1ccc(C)o1)n2Cc1ccccc1	
> 10000 nM	C#Cc1ccc2c(c1)nc(NCc1ccco1)n2Cc1ccccc1	
2240 nM	CCc1ccc2c(c1)nc(NCc1ccco1)n2Cc1cccc(C(F)(F)F)c1	
1340 nM	CCCc1ccc2c(c1)nc(NCc1ccco1)n2Cc1ccccc1	
> 10000 nM	CCc1ccc2c(c1)nc(NCc1ccco1)n2Cc1ccccc1C(F)(F)F	
2950 nM	CCc1ccc2c(c1)nc(NCCc1ccncc1)n2Cc1ccccc1	
> 10000 nM	Oc1ccc2c(c1)nc(NCc1ccco1)n2Cc1ccccc1	
